According to PubChem BioAssay (NCI):
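GI50: concentration for 50% inhibition of growth. TGI: total growth inhibition.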

Columns and labels:
Test in all cases: NCI anticancer screen, dose series, 384-well format
OVCAR-5 ovarian = test system: OVCAR-5 ovarian
NCI-H322M lung = test system: NCI-H322M lung
UO-31 renal = test system: UO-31 renal
HCT-116 colon = test system: HCT-116 colon
SNB-19 CNS = test system: SNB-19 CNS
SF-295 CNS = test system: SF-295 CNS
SK-MEL-28 melanoma = test system: SK-MEL-28 melanoma
SK-OV-3 ovarian = test system: SK-OV-3 ovarian
UACC-62 melanoma = test system: UACC-62 melanoma
COLO 205 colon = test system: COLO 205 colon
SN12C renal = test system: SN12C renal
SF-539 CNS = test system: SF-539 CNS
PC-3 prostate = test system: PC-3 prostate
RPMI-8226 leukemia = test system: RPMI-8226 leukemia
NCI-H522 lung = test system: NCI-H522 lung
NCI/ADR-RES ovarian = test system: NCI/ADR-RES ovarian
MALME-3M melanoma = test system: MALME-3M melanoma
CCRF-CEM leukemia = test system: CCRF-CEM leukemia
MDA-MB-435 melanoma = test system: MDA-MB-435 melanoma
MDA-MB-468 breast = test system: MDA-MB-468 breast
SF-268 CNS = test system: SF-268 CNS
K-562 leukemia = test system: K-562 leukemia
A498 renal = test system: A498 renal
HT29 colon = test system: HT29 colon
SK-MEL-5 melanoma = test system: SK-MEL-5 melanoma
SK-MEL-2 melanoma = test system: SK-MEL-2 melanoma
MOLT-4 leukemia = test system: MOLT-4 leukemia
TK-10 renal = test system: TK-10 renal
786-0 renal = test system: 786-0 renal
LOX IMVI melanoma = test system: LOX IMVI melanoma
NCI-H23 lung = test system: NCI-H23 lung
IGROV1 ovarian = test system: IGROV1 ovarian
M14 melanoma = test system: M14 melanoma
NCI-H460 NSCLC = test system: NCI-H460 NSCLC
MDA-MB-231 breast = test system: MDA-MB-231 breast
U251 glioblastoma = test system: U251 glioblastoma
SR leukemia = test system: SR leukemia
HOP-62 NSCLC = test system: HOP-62 NSCLC
UACC-257 melanoma = test system: UACC-257 melanoma
MCF7 breast = test system: MCF7 breast
OVCAR-4 ovarian = test system: OVCAR-4 ovarian
HCT-15 colon = test system: HCT-15 colon
NCI-H226 lung = test system: NCI-H226 lung
RXF 393 renal = test system: RXF 393 renal
HCC-2998 colon = test system: HCC-2998 colon
CAKI-1 renal = test system: CAKI-1 renal
HOP-92 NSCLC = test system: HOP-92 NSCLC
A549 NSCLC = test system: A549 NSCLC
HL-60(TB) leukemia = test system: HL-60(TB) leukemia
SW-620 colon = test system: SW-620 colon
KM12 colon = test system: KM12 colon
BT-549 breast = test system: BT-549 breast
OVCAR-3 ovarian = test system: OVCAR-3 ovarian
OVCAR-8 ovarian = test system: OVCAR-8 ovarian
T-47D breast = test system: T-47D breast
DU-145 prostate = test system: DU-145 prostate
ACHN renal = test system: ACHN renal

Cc1c(COc2cc(OCc3cccc(C#N)c3)c(CN3C[C@H](O)C[C@@H]3C(=O)O)cc2Cl)cccc1-c1ccc2c(c1)OCCO2
GI50 (OVCAR-5 ovarian): 15 µM | TGI (OVCAR-5 ovarian): 28.2 µM | GI50 (NCI-H322M lung): 7.65 µM | TGI (NCI-H322M lung): 20.2 µM | GI50 (UO-31 renal): 1.93 µM | TGI (UO-31 renal): 3.79 µM | GI50 (HCT-116 colon): 2.81 µM | TGI (HCT-116 colon): 7.43 µM | GI50 (SNB-19 CNS): 4.11 µM | TGI (SNB-19 CNS): 13.5 µM | GI50 (SF-295 CNS): 3.09 µM | TGI (SF-295 CNS): 8.92 µM | GI50 (SK-MEL-28 melanoma): 2.71 µM | TGI (SK-MEL-28 melanoma): 7.55 µM | GI50 (SK-OV-3 ovarian): 5.17 µM | TGI (SK-OV-3 ovarian): 16.3 µM | GI50 (UACC-62 melanoma): 2.3 µM | TGI (UACC-62 melanoma): 5.05 µM | GI50 (COLO 205 colon): 4.51 µM | TGI (COLO 205 colon): 14.6 µM | GI50 (SN12C renal): 5.41 µM | TGI (SN12C renal): 16.4 µM | GI50 (SF-539 CNS): 3.25 µM | TGI (SF-539 CNS): 11.6 µM | GI50 (PC-3 prostate): 3.58 µM | TGI (PC-3 prostate): 10.3 µM | GI50 (RPMI-8226 leukemia): 1.67 µM | TGI (RPMI-8226 leukemia): 3.04 µM | GI50 (NCI-H522 lung): 2.73 µM | TGI (NCI-H522 lung): 9.61 µM | GI50 (NCI/ADR-RES ovarian): 77.7 µM | TGI (NCI/ADR-RES ovarian): > 100 µM | GI50 (MALME-3M melanoma): 5.72 µM | TGI (MALME-3M melanoma): 17.5 µM | GI50 (CCRF-CEM leukemia): 1.81 µM | TGI (CCRF-CEM leukemia): 3.26 µM | GI50 (MDA-MB-435 melanoma): 4.35 µM | TGI (MDA-MB-435 melanoma): 14.2 µM | GI50 (MDA-MB-468 breast): 2.7 µM | TGI (MDA-MB-468 breast): 6.92 µM | GI50 (SF-268 CNS): 3.98 µM | TGI (SF-268 CNS): 14.5 µM | GI50 (K-562 leukemia): 3.46 µM | TGI (K-562 leukemia): 12.1 µM | GI50 (A498 renal): 3.27 µM | TGI (A498 renal): 11.7 µM | GI50 (HT29 colon): 2.42 µM | TGI (HT29 colon): 5.77 µM | GI50 (SK-MEL-5 melanoma): 1.72 µM | TGI (SK-MEL-5 melanoma): 4.31 µM | GI50 (SK-MEL-2 melanoma): 1.93 µM | TGI (SK-MEL-2 melanoma): 3.76 µM | GI50 (MOLT-4 leukemia): 1.77 µM | TGI (MOLT-4 leukemia): 3.16 µM | GI50 (TK-10 renal): 3.11 µM | TGI (TK-10 renal): 9.29 µM | GI50 ([…]-0 renal): 3.82 µM | TGI (786-0 renal): 13.7 µM | GI50 (LOX IMVI melanoma): 2.68 µM | TGI (LOX IMVI melanoma): 6.63 µM | GI50 (NCI-H23 lung): 10.4 µM | TGI (NCI-H23 lung): 22.2 µM | GI50 (IGROV1 ovarian): 3.93 µM | TGI (IGROV1 ovarian): 14.2 µM | GI50 (M14 melanoma): 3.64 µM | TGI (M14 melanoma): 11.6 µM | GI50 (NCI-H460 NSCLC): 3.45 µM | TGI (NCI-H460 NSCLC): 12.4 µM | GI50 (MDA-MB-231 breast): 3.23 µM | TGI (MDA-MB-231 breast): 9.47 µM | GI50 (U251 glioblastoma): 3.38 µM | TGI (U251 glioblastoma): 10.6 µM | GI50 (SR leukemia): 1.69 µM | TGI (SR leukemia): 3.06 µM | GI50 (HOP-62 NSCLC): 3.97 µM | TGI (HOP-62 NSCLC): 15.4 µM | GI50 (UACC-257 melanoma): 2.63 µM | TGI (UACC-257 melanoma): 8.02 µM | GI50 (MCF7 breast): 2.34 µM | TGI (MCF7 breast): 6.63 µM | GI50 (OVCAR-4 ovarian): 4.03 µM | TGI (OVCAR-4 ovarian): 16 µM | GI50 (HCT-15 colon): 4.4 µM | TGI (HCT-15 colon): 14.8 µM | GI50 (NCI-H226 lung): 2.6 µM | TGI (NCI-H226 lung): 7.19 µM | GI50 (RXF 393 renal): 1.41 µM | TGI (RXF 393 renal): 3.5 µM | GI50 (HCC-2998 colon): 1.47 µM | TGI (HCC-2998 colon): 3.59 µM | GI50 (CAKI-1 renal): 6.69 µM | TGI (CAKI-1 renal): 18.8 µM | GI50 (HOP-92 NSCLC): 2.4 µM | TGI (HOP-92 NSCLC): 6 µM | GI50 (A549 NSCLC): 10.6 µM | TGI (A549 NSCLC): 22.5 µM | GI50 (HL-60(TB) leukemia): 2.1 µM | TGI (HL-60(TB) leukemia): 3.54 µM | GI50 (SW-620 colon): 5.44 µM | TGI (SW-620 colon): 17 µM | GI50 (KM12 colon): 3.38 µM | TGI (KM12 colon): 10.9 µM | GI50 (BT-549 breast): 3.4 µM | TGI (BT-549 breast): 12 µM | GI50 (OVCAR-3 ovarian): 2.37 µM | TGI (OVCAR-3 ovarian): 6.1 µM | GI50 (OVCAR-8 ovarian): 4.21 µM | TGI (OVCAR-8 ovarian): 15.5 µM | GI50 (T-47D breast): 2.97 µM | TGI (T-47D breast): 12.9 µM | GI50 (DU-145 prostate): 7.96 µM | TGI (DU-145 prostate): 20.5 µM | GI50 (ACHN renal): 10.4 µM | TGI (ACHN renal): 22.3 µM
